The text below walks through data of PubChem BioAssay (NCI).

Among the test systems are SF-268 CNS; DU-145 prostate; SK-MEL-5 melanoma; NCI-H522 lung; HOP-92 NSCLC; EKVX NSCLC; SK-MEL-2 melanoma; ACHN renal; NCI-H226 lung; MDA-MB-435; SNB-75 CNS.
Common to all, as to assay: NCI anticancer screen, dose series, 48 h

Each structure is given as a SMILES string.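 Growth conditions: 96-well plates. Treatment: test compound, 48 hours, 5 concentrations. Analysis: linear interpolation between bracketing concentrations; unreached endpoints set to highest concentration. TGI denotes the concentration required for complete inhibition of growth.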 Where only a bound is given, the exact number is not on record here.

As for `CC(C)C1OC(/C=C/c2ccccc2)OCC1(C)C` (configuration not stated), the TGI is over 100 µM with SF-268 CNS; over 100 µM in the test on DU-145 prostate; 37.5 µM with SK-MEL-5 melanoma; 32.2 µM in the test on NCI-H522 lung; 52.5 µM in the test on HOP-92 NSCLC; 82.3 µM with EKVX NSCLC. For the same compound, the TGI is 37.5 µM in the test on SK-MEL-2 melanoma; over 100 µM in the test with ACHN renal; 63 µM in the test with NCI-H226 lung; over 100 µM with MDA-MB-435; 78.6 µM in the test on SNB-75 CNS.

Regarding `COC(=O)[C@@H]1C[C@@H]2c3ccccc3N(S(=O)(=O)c3ccccc3)[C@@H]2N1C(=O)OC`, the TGI with SF-268 CNS, with DU-145 prostate, with SK-MEL-5 melanoma, in the test with NCI-H522 lung, in the test with HOP-92 NSCLC and in the test with EKVX NSCLC was over 100 µM in each case. For the same compound, the TGI in the test with SK-MEL-2 melanoma, in the test with ACHN renal, in the test on NCI-H226 lung, in the test with MDA-MB-435 and with SNB-75 CNS was over 100 µM throughout.
